Source: patent publication US20250090699A1, “FAP TARGETING CYCLIC PEPTIDES AND CONJUGATES THEREOF” (Novartis AG, priority 2023, published 2025)
Structures can show the parent of a compound that is named as a salt. Starred links: 1 amine or outer side, 2 acyl side, 3 side chain; linkers in the order of their positions; H or OH if unused. Non-standard residues stand in square brackets, D forms with d. Residues, ends and D or L forms follow the SMILES beside them. Groups on a side chain read outwards from the residue. *: point of attachment. Piperazinyl(4-CH2COOH) = O=C(O)CN1CCN(*)CC1; 3Pal(6-NH2) = Nc1ccc(C[C@H](N)C(=O)O)cn1; AEF = NCCOc1ccc(C[C@H](N)C(=O)O)cc1; NMeY = CN[C@@H](Cc1ccc(O)cc1)C(=O)O; NMeF = CN[C@@H](Cc1ccccc1)C(=O)O; Ahp(2) = CCCCC[C@H](N)C(=O)O; hSer = N[C@@H](CCO)C(=O)O; CO = O=C([*:1])[*:2]

Columns and labels:
mouse FAP [1] = biological target: T1, mouse FAP (Mus musculus, UniProt P97321); assay: Surface plasmon resonance (SPR) for peptide affinity, mouse FAP; format: binding
T1 construct: biotinylated His, Avi tag, mouse FAP (26-761, FAP-M82Q5); His; Avi tag (biotinylated); purchased AcroBiosystems FAP-M82Q5
T1 sequence (P97321 26-761): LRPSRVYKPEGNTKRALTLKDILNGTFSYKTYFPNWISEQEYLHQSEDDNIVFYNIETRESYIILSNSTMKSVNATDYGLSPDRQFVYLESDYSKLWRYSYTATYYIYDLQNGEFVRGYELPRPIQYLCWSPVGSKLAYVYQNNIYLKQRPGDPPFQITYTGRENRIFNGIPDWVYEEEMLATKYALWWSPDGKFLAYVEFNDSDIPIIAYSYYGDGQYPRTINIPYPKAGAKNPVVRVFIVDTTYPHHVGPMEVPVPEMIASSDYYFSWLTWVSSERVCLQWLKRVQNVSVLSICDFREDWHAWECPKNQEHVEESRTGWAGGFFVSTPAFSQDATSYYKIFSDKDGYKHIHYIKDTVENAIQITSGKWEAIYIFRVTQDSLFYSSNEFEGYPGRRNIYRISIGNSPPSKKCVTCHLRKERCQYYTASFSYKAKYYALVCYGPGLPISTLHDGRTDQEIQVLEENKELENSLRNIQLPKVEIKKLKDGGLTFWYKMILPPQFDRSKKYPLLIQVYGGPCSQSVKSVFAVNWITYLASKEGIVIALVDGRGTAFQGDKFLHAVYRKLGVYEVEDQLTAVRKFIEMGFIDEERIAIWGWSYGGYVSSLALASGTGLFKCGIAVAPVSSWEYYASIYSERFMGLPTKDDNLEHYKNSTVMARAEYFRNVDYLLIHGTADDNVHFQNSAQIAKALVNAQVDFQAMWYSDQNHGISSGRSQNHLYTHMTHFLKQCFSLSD
How it was run: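 Biotinylated His/Avi-tagged FAP ectodomains (human 26-760, mouse 26-761) captured or immobilized on Biacore sensor chips; peptides run at 25 °C in HBS-EP+ pH 7.6 with 2% DMSO, single-cycle kinetics, 8 concentrations. KD from 1:1 binding-model fit of sensorgrams.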

mouse FAP [2] = biological target: T1, mouse FAP; assay: Enzymatic FAP competition assay (Z-Gly-Pro-AMC fluorescence), mouse FAP; format: biochemical; settings: read-out: m. FAP, Enz., IC50
How it was run: (§1)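 Biotinylated His/Avi-tagged FAP ectodomain (human 26-760, mouse 26-761) at 0.01 nM, preincubated 24 h with peptides (14 concentrations, up to 1 μM) in pH 7.5 phosphate, 150 mM NaCl, 0.05% Tween20, 1% DMSO. Then 50 μM Z-Gly-Pro-AMC, 4 h at 22-24° C; AMC fluorescence (380/460 nm) gave IC50 from duplicate points.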

human FAP = biological target: T2, human FAP (Homo sapiens, UniProt Q12884); assay: Enzymatic FAP competition assay (Z-Gly-Pro-AMC fluorescence), human FAP; format: biochemical; settings: read-out: h. FAP, Enz., IC50
T2 construct: the biotinylated His, Avi tag, human FAP (26-760, FAP-H82Q6); His; Avi tag (biotinylated); purchased AcroBiosystems FAP-H82Q6
T2 sequence (Q12884 26-760): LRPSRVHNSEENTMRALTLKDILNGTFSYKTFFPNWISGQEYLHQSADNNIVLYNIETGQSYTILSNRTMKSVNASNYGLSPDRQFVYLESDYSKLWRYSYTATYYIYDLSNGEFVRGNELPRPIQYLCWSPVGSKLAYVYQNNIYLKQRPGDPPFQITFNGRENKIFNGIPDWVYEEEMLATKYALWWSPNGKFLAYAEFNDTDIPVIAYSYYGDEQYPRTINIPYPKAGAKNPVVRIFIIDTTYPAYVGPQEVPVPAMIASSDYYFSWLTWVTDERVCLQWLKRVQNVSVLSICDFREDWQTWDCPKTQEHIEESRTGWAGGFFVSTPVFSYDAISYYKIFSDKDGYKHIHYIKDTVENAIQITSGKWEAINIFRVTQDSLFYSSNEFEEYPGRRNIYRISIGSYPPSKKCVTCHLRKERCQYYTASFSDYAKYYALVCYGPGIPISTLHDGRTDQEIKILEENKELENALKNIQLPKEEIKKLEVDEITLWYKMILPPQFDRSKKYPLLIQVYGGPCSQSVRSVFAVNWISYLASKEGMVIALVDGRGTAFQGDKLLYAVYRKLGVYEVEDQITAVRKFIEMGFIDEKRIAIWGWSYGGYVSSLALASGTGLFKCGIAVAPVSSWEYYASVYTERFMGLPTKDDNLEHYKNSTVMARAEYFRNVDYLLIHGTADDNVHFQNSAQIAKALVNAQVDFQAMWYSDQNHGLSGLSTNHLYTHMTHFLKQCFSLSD
How it was run: as §1

## CCCCC[C@@H]1NC(=O)[C@H](Cc2ccc(OCCN)cc2)NC(=O)[C@H](Cc2ccccc2)N(C)C(=O)CNC(=O)CNC(=O)[C@H]2CCCN2C(=O)[C@H](CC(=O)O)NC(=O)[C@H](Cc2ccc(N)nc2)NC(=O)CNC(=O)[C@H](Cc2c[nH]c3ccccc23)NC1=O [Example A45, Gly-Gly-NMePhe-F(4OEtNH2)-Ahp-Trp-Gly-3PyA(6NH2)-Asp-D-Pro, TFA salt] (cyclo([AEF][Ahp(2)]WG[3Pal(6-NH2)]D[dP]GG[NMeF]))
Mouse FAP [1]
  Kd: 0.54 nM
Mouse FAP [2]
  IC50: 0.93 nM
Human FAP
  IC50: 0.192 nM

## CCCCC[C@@H]1NC(=O)[C@H](Cc2ccc(OCCN)cc2)NC(=O)[C@H](Cc2ccccc2)N(C)C(=O)CNC(=O)[C@H](CCCCNC(=O)N2CCN(CC(=O)O)CC2)NC(=O)[C@H]2CCCN2C(=O)[C@H](CC(=O)O)NC(=O)[C@H](Cc2ccc(O)cc2)NC(=O)CNC(=O)[C@H](Cc2c[nH]c3ccccc23)NC1=O [Example A46, K(COpipzaa)-Gly-NMePhe-F(4OEtNH2)-Ahp-Trp-Gly-Tyr-Asp-D-Pro, TFA salt] (cyclo([AEF][Ahp(2)]WGYD[dP]K([CO-Piperazinyl(4-CH2COOH)])G[NMeF]))
Mouse FAP [1]
  Kd: 2.2 nM
Mouse FAP [2]
  IC50: 2.8 nM
Human FAP
  IC50: 0.5 nM

## CCCCC[C@@H]1NC(=O)[C@H](Cc2ccc(OCCN)cc2)NC(=O)[C@H](Cc2ccccc2)N(C)C(=O)CNC(=O)[C@H](CCO)NC(=O)[C@H]2CCCN2C(=O)[C@H](CC(=O)O)NC(=O)[C@H](Cc2ccc(O)cc2)NC(=O)CNC(=O)[C@H](Cc2c[nH]c3ccccc23)NC1=O [Example A47, hSer-Gly-NMePhe-F(4OEtNH2)-Ahp-Trp-Gly-Tyr-Asp-D-Pro, TFA salt] (cyclo([AEF][Ahp(2)]WGYD[dP][hSer]G[NMeF]))
Mouse FAP [1]
  Kd: 0.48 nM
Mouse FAP [2]
  IC50: 0.6 nM
Human FAP
  IC50: 0.181 nM

## CCCCC[C@@H]1NC(=O)[C@H](Cc2ccc(O)cc2)NC(=O)[C@H](Cc2ccccc2)N(C)C(=O)CNC(=O)CNC(=O)[C@H]2CCCN2C(=O)[C@H](CC(=O)O)NC(=O)[C@H](Cc2ccc(O)cc2)N(C)C(=O)CNC(=O)[C@H](Cc2c[nH]c3ccccc23)NC1=O [Example A50, 2-((9S,12S,15S,18S,24S,27S,32aR)-18-((1H-indol-3-yl)methyl)-9-benzyl-12,24-bis(4-hydroxybenzyl)-8,23-dimethyl-1,4,7,10,13,16,19,22,25,28-decaoxo-15-pentyldotriacontahydropyrrolo[1,2-a][1,4,7,10,13,16,19,22,25,28]decaazacyclotriacontin-27-yl)acetic acid] (cyclo([Ahp(2)]WG[NMeY]D[dP]GG[NMeF]Y))
Mouse FAP [1]
  Kd: 2.8 nM
Mouse FAP [2]
  IC50: 2.4 nM
Human FAP
  IC50: 0.95 nM

## CCCCC[C@@H]1NC(=O)[C@H](Cc2ccc(O)cc2)NC(=O)[C@H](Cc2ccccc2)N(C)C(=O)CNC(=O)[C@H](CCCCN)NC(=O)[C@H]2CCCN2C(=O)[C@H](CC(=O)O)NC(=O)[C@H](Cc2ccc(O)cc2)NC(=O)CNC(=O)[C@H](Cc2c[nH]c3ccccc23)NC1=O [Example A53, Lys-Gly-NMePhe-Tyr-Ahp-Trp-Gly-Tyr-Asp-D-Pro, TFA salt] (cyclo([Ahp(2)]WGYD[dP]KG[NMeF]Y))
Mouse FAP [1]
  Kd: 0.72 nM
Mouse FAP [2]
  IC50: 1.3 nM
Human FAP
  IC50: 0.4 nM

## CCCCC[C@@H]1NC(=O)[C@H](Cc2ccc(O)cc2)NC(=O)[C@H](Cc2ccccc2)N(C)C(=O)CNC(=O)CNC(=O)[C@H]2CCCN2C(=O)[C@H](CCCCNC(C)=O)NC(=O)[C@H](Cc2ccc(O)cc2)NC(=O)CNC(=O)[C@H](Cc2c[nH]c3ccccc23)NC1=O [Example A55, Gly-Gly-NMePhe-Tyr-Ahp-Trp-Gly-Tyr-K(Ac)-D-Pro] (cyclo([Ahp(2)]WGYK(Ac)[dP]GG[NMeF]Y))
Mouse FAP [1]
  Kd: 135 nM
Mouse FAP [2]
  IC50: 84 nM
Human FAP
  IC50: 24 nM
